Measured values published in patent US9204645B2, “Insecticidal aromatic amides” (BAYER INTELLECTUAL PROPERTY GMBH, priority 2011, dated 2015).

What was measured:
Assay type in all cases: in vivo
[1] = test system: green peach aphid (Myzus persicae); experiment: Myzus spray test (MYZUPE); settings: for efficacy compared to similar compounds of the prior art: MYZUPE spray test; for inhibition at 20 g/ha / inhibition at 100 g/ha / inhibition at 500 g/ha: Myzus persicae, 144 h, MYZUPE, 6 dat; for inhibition at 20 g/ha / inhibition at 100 g/ha: read-out: % Activity
Experimental: Myzus—Spray Test (MYZUPE)
(§1) • Solvents: 78.0 parts by weight of acetone • 1.5 parts by weight of dimethylformamide • Emulsifier: 0.5 part by weight of alkylaryl polyglycol ether
(§2) To produce a suitable preparation of active compound, 1 part by weight of active compound is mixed with the stated amounts of solvents and emulsifier, and the concentrate is diluted with emulsifier-containing water to the desired concentration.
Discs of Chinese cabbage leaves (Brassica pekinensis) infested by all stages of the green peach aphid (Myzus persicae) are sprayed with an active compound preparation of the desired concentration.
After the desired period of time, the effect in % is determined. 100% here means that all of the aphids have been killed; 0% means that no aphids have been killed.

[2] = test system: greenhouse red spider mite (Tetranychus urticae); experiment: Tetranychus urticae spray test, OP-resistant (TETRUR), bean leaf discs; settings: for efficacy compared to similar compounds of the prior art: TETRUR spray test, leaf discs; for inhibition at 100 g/ha / inhibition at 500 g/ha: Tetranychus urticae, foliar, 144 h, TETRUR, 6 dat, read-out: % Activity
Experimental: Tetranychus urticae—Spray Test; OP-resistant (TETRUR)
as §1, §2
Discs of bean leaves (Phaseolus vulgaris) which are infested by all stages of the greenhouse red spider mite (Tetranychus urticae) are sprayed with an active compound preparation of the desired concentration.
After the desired period of time, the effect in % is determined. 100% means that all of the spider mites have been killed; 0% means that none of the spider mites have been killed.

[3] = test system: larvae of the mustard beetle (Phaedon cochleariae); experiment: Phaedon cochleariae spray test (PHAECO); settings: for inhibition at 20 g/ha: read-out: % Activity
Experimental: Phaedon Cochleariae—Spray Test (PHAECO)
as §1, §2
After the desired period of time, the effect in % is determined 100% means that all of the beetle larvae have been killed; 0% means that none of the beetle larvae have been killed.

[4] = test system: caterpillars of the armyworm (Spodoptera frugiperda); experiment: Spodoptera frugiperda spray test (SPODFR); settings: 168 h, 7 dat
Experimental: Spodoptera frugiperda—Spray Test (SPODFR)
as §2, with “• Solvents: 78.0 parts by weight of acetone • 1.5 parts by weight of dimethylformamide • Emulsifier: 0.5 part by weight of alkylaryl polyglycol ether • To” for “To”
Leaf discs of maize (Zea mays) are sprayed with an active compound preparation of the desired concentration and, after drying, populated with caterpillars of the armyworm (Spodoptera frugiperda).
After the desired period of time, the effect in % is determined. 100% means that all of the caterpillars have been killed; 0% means that none of the caterpillars have been killed.

[5] = Phaedon cochleariae, 168 h, PHAECO, 7 dat

In the case of Cn1nc(C(F)(F)F)c(C(F)(F)F)c1C(=O)Nc1ccc(F)c(CNC(=O)C2CC2)c1 [Example 298], the “efficacy compared to similar compounds of the prior art” value (“efficacy compared to similar compounds” for short) [1] is reported as “superior efficacy” and the inhibition at 20 g/ha [1] is reported as 90%.

For CC(=O)NCc1cc(NC(=O)c2c(Br)c(C(F)(F)C(F)(F)F)nn2C)ccc1F [Example 926], the “efficacy compared to similar compounds” value [2] was “superior efficacy” and the inhibition at 100 g/ha [2] was 90%.

For Cn1nc(C(F)(F)C(F)(F)F)c(Br)c1C(=O)Nc1ccc(F)c(CNC(=O)C2CC2)c1 [Example 933], the “efficacy compared to similar compounds” value ([3]; PHAECO spray test) was “superior efficacy”, the inhibition at 20 g/ha [3, 5] was 100% and the “efficacy compared to similar compounds” value [2] was “superior efficacy”. It also gave an inhibition at 100 g/ha [2] of 90%.

CC(=O)NCc1cc(NC(=O)c2c(Cl)c(C(F)(F)F)nn2C)ccc1F [Example 937] was tested, and the “efficacy compared to similar compounds” value [1] was “superior efficacy” and the inhibition at 100 g/ha [1] was 90%.

Cn1nc(C(F)(F)C(F)(F)F)c(C(F)(F)F)c1C(=O)Nc1cccc(C(=O)NC2CC2)c1 [Example Ik-13, reference compound] showed an inhibition at 500 g/ha [1] of 0% and an inhibition at 500 g/ha [2] of 0%.

Work on Cn1nc(C(F)(F)F)c(Cl)c1C(=O)Nc1ccc(Cl)c(C(=O)NC2CC2)c1 [Example Ik-18, reference compound] yielded an inhibition at 100 g/ha [1] of 0%.

Cn1nc(C(F)(F)C(F)(F)F)c(Br)c1C(=O)Nc1ccc(Cl)c(C(=O)NC2CC2)c1 [Example Ik-26, reference compound] was tested, and the inhibition at 20 g/ha [3, 5] was 0% and the inhibition at 100 g/ha [2] was 0%.

In the case of CC(C)NC(=O)c1cc(NC(=O)c2c(Br)c(C(F)(F)C(F)(F)F)nn2C)ccc1Cl [Example Ik-27, reference compound], the inhibition at 100 g/ha [2] is reported as 0%.

CCCNC(=O)c1cc(NC(=O)c2c(C(F)(F)F)c(C(F)(F)C(F)(F)F)nn2C)ccc1Cl [Example Ik-30, reference compound] was tested, and the inhibition at 20 g/ha [1] was 0%.

For CC(C)NC(=O)c1c(F)ccc(NC(=O)c2c(C(F)(F)F)c(C(F)(F)C(F)(F)F)nn2C)c1F [Example Ik-74, reference compound], the inhibition at 100 g/ha ([3]; Phaedon cochleariae, 168 h, PHAECO, 100 g/ha, 7 dat) was 33%, the inhibition at 500 g/ha [1] was 0% and the inhibition at 500 g/ha [2] was 0%. It also gave an inhibition at 100 g/ha [4] of 0%.

Compound CC(C)NC(=O)c1cc(NC(=O)c2c(C(F)(F)F)c(C(F)(F)C(F)(F)F)nn2C)ccc1F [Example Ik-75, reference compound] has an inhibition at 20 g/ha [3, 5] of 0%, an inhibition at 100 g/ha [1] of 0% and an inhibition at 500 g/ha [1] of 0%. It also gave an inhibition at 100 g/ha [2] of 0% and an inhibition at 500 g/ha [2] of 0%.

CN(C(=O)c1c(C(F)(F)F)c(C(F)(F)C(F)(F)F)nn1C)c1ccc(Cl)c(C(=O)NC2CC2)c1 [Example Ik-132, reference compound] gave an inhibition at 100 g/ha [1] of 0%.

For Cn1nc(C(F)(F)C(F)(F)F)c(C(F)(F)F)c1C(=O)Nc1ccc(F)c(C(=O)NC2CC2)c1 [Example Ik-155, reference compound], the inhibition at 100 g/ha [1] was 0% and the inhibition at 100 g/ha [2] was 0%.

With Cn1nc(C(F)(F)F)c(C(F)(F)F)c1C(=O)Nc1ccc(Cl)c(C(=O)NC2CC2)c1 [Example Ik-195, reference compound] the inhibition at 20 g/ha [1] was 0%.
